Measured values: the NIST ThermoML archive (doi:10.1021/je060271a)
Values joined by “and” are separate entries in the source; they are usually repeats but may differ in a detail not shown here. Identical values can stand only once.

Details: Liquid, Vibrating tube method

CCCC(=O)OCC(COC(=O)CCC)(COC(=O)CCC)COC(=O)CCC [pentaerythritol tetrabutyrate]
Details | mass density
283.16 K, 23020 kPa | 1072.1 kg/m3
283.16 K, 23036 kPa | 1072.1 kg/m3
283.16 K, 23052 kPa | 1072.2 kg/m3
283.16 K, 23069 kPa | 1072.1 kg/m3
283.16 K, 23089 kPa | 1072.1 kg/m3
283.16 K, 23106 kPa | 1072.1 kg/m3
283.16 K, 23123 kPa | 1072.2 kg/m3
283.16 K, 23269 kPa | 1072.2 kg/m3
283.16 K, 23431 kPa | 1072.4 kg/m3
283.16 K, 23452 kPa | 1072.4 kg/m3
283.16 K, 23468 kPa | 1072.3 kg/m3
283.16 K, 23490 kPa | 1072.3 kg/m3
283.16 K, 23507 kPa | 1072.4 kg/m3
283.16 K, 23524 kPa | 1072.5 kg/m3
283.16 K, 23541 kPa | 1072.4 kg/m3
283.16 K, 23562 kPa | 1072.4 kg/m3
283.16 K, 23580 kPa | 1072.5 kg/m3
283.16 K, 23601 kPa | 1072.4 kg/m3
283.16 K, 23619 kPa | 1072.4 kg/m3
283.16 K, 23636 kPa | 1072.4 kg/m3
283.16 K, 23657 kPa | 1072.3 kg/m3
283.16 K, 23675 kPa | 1072.4 kg/m3
283.16 K, 23692 kPa | 1072.5 kg/m3
283.16 K, 23710 kPa | 1072.6 kg/m3
283.16 K, 23767 kPa | 1072.5 kg/m3
283.16 K, 23788 kPa | 1072.6 kg/m3
283.16 K, 23806 kPa | 1072.5 kg/m3
283.16 K, 23824 kPa | 1072.5 kg/m3
283.16 K, 23846 kPa | 1072.6 kg/m3
283.16 K, 23864 kPa | 1072.6 kg/m3
283.16 K, 24034 kPa | 1072.7 kg/m3
283.16 K, 24056 kPa | 1072.8 kg/m3
283.16 K, 24075 kPa | 1072.7 kg/m3
283.16 K, 24094 kPa | 1072.7 kg/m3
283.16 K, 24114 kPa | 1072.6 kg/m3
283.16 K, 24135 kPa | 1072.6 kg/m3
283.16 K, 24154 kPa | 1072.8 kg/m3
283.16 K, 24172 kPa | 1072.7 kg/m3
283.16 K, 24191 kPa | 1072.6 kg/m3
283.16 K, 24213 kPa | 1072.7 kg/m3
283.16 K, 24231 kPa | 1072.8 kg/m3
283.16 K, 24254 kPa | 1072.9 kg/m3
283.16 K, 24332 kPa | 1072.7 kg/m3
283.16 K, 24351 kPa | 1072.9 kg/m3
283.16 K, 24370 kPa | 1072.7 kg/m3
283.16 K, 24392 kPa | 1072.7 kg/m3
283.16 K, 24412 kPa | 1072.8 kg/m3
283.16 K, 24431 kPa | 1072.9 kg/m3
283.16 K, 24453 kPa | 1072.9 kg/m3
283.16 K, 24472 kPa | 1072.9 kg/m3
283.16 K, 24494 kPa | 1072.9 kg/m3
283.16 K, 24514 kPa | 1072.9 kg/m3
283.16 K, 24532 kPa | 1072.9 kg/m3
283.16 K, 24551 kPa | 1072.9 kg/m3
283.16 K, 24574 kPa | 1072.9 kg/m3
283.16 K, 24593 kPa | 1072.9 kg/m3
283.16 K, 24613 kPa | 1073 kg/m3
283.16 K, 24636 kPa | 1072.9 kg/m3
283.16 K, 24656 kPa | 1073 kg/m3
283.16 K, 24989 kPa | 1073.1 kg/m3
283.16 K, 25506 kPa | 1073.5 kg/m3
283.16 K, 25531 kPa | 1073.5 kg/m3
283.16 K, 25552 kPa | 1073.5 kg/m3
283.16 K, 25573 kPa | 1073.4 kg/m3
283.16 K, 26529 kPa | 1073.9 kg/m3
283.16 K, 26552 kPa | 1074 kg/m3
283.16 K, 26575 kPa | 1074 kg/m3
283.16 K, 26603 kPa | 1073.9 kg/m3
283.16 K, 26626 kPa | 1074 kg/m3
283.16 K, 26649 kPa | 1074 kg/m3
283.16 K, 26676 kPa | 1073.9 kg/m3
283.16 K, 26698 kPa | 1074 kg/m3
283.16 K, 29351 kPa | 1075.5 kg/m3
283.16 K, 29380 kPa | 1075.4 kg/m3
283.16 K, 29409 kPa | 1075.5 kg/m3
283.16 K, 33957 kPa | 1077.9 kg/m3
283.16 K, 34005 kPa | 1077.8 kg/m3
283.16 K, 34045 kPa | 1078 kg/m3
283.16 K, 34086 kPa | 1077.9 kg/m3
283.16 K, 34136 kPa | 1078 kg/m3
283.16 K, 34523 kPa | 1078 kg/m3
283.16 K, 34524 kPa | 1078.1 kg/m3
283.16 K, 34525 kPa | 1078.1 kg/m3 and 1078 kg/m3
283.16 K, 34526 kPa | 1078.2 kg/m3 and 1078.1 kg/m3
283.16 K, 34527 kPa | 1078.1 kg/m3 and 1078.2 kg/m3
283.16 K, 34528 kPa | 1078.2 kg/m3 and 1078.1 kg/m3
283.16 K, 34529 kPa | 1078.1 kg/m3
283.17 K, 5010.1 kPa | 1062 kg/m3
283.17 K, 5010.7 kPa | 1062.1 kg/m3
283.17 K, 5010.8 kPa | 1062 kg/m3
283.17 K, 5011 kPa | 1062 kg/m3
283.17 K, 5011.2 kPa | 1062 kg/m3 and 1062.1 kg/m3
283.17 K, 5011.5 kPa | 1062.1 kg/m3
283.17 K, 5026.1 kPa | 1062 kg/m3
283.17 K, 5026.2 kPa | 1061.9 kg/m3
283.17 K, 5026.4 kPa | 1062 kg/m3
283.17 K, 5482.5 kPa | 1062.3 kg/m3
283.17 K, 5493.4 kPa | 1062.3 kg/m3
283.17 K, 5500 kPa | 1062.3 kg/m3
283.17 K, 5505.1 kPa | 1062.3 kg/m3
283.17 K, 6286.6 kPa | 1062.7 kg/m3
283.17 K, 6293.2 kPa | 1062.8 kg/m3
283.17 K, 34163 kPa | 1077.8 kg/m3
283.17 K, 34186 kPa | 1077.9 kg/m3
283.17 K, 34206 kPa | 1078 kg/m3
283.17 K, 34224 kPa | 1077.9 kg/m3
283.17 K, 34234 kPa | 1077.9 kg/m3
283.17 K, 34519 kPa | 1078.2 kg/m3 and 1078.1 kg/m3
283.17 K, 34520 kPa | 1078.1 kg/m3
283.17 K, 34521 kPa | 1078.2 kg/m3 and 1078.1 kg/m3
283.17 K, 34522 kPa | 1078 kg/m3 and 1078.1 kg/m3
283.17 K, 34523 kPa | 1078.2 kg/m3
283.17 K, 34524 kPa | 1078.2 kg/m3
303.15 K, 13139 kPa | 1050.5 kg/m3
303.15 K, 20352 kPa | 1054.9 kg/m3
303.15 K, 20397 kPa | 1055 kg/m3
303.15 K, 20435 kPa | 1055.1 kg/m3
303.15 K, 21135 kPa | 1055.3 kg/m3
303.15 K, 21185 kPa | 1055.4 kg/m3
303.15 K, 21226 kPa | 1055.4 kg/m3
303.15 K, 21276 kPa | 1055.5 kg/m3
303.15 K, 21416 kPa | 1055.6 kg/m3
303.15 K, 32925 kPa | 1062.1 kg/m3
303.15 K, 32967 kPa | 1062.1 kg/m3
303.15 K, 33008 kPa | 1062.1 kg/m3
303.15 K, 33049 kPa | 1062.2 kg/m3
303.16 K, 104.1 kPa | 1042.1 kg/m3
303.16 K, 104.5 kPa | 1042.2 kg/m3
303.16 K, 105.2 kPa | 1042.1 kg/m3
303.16 K, 105.7 kPa | 1042.2 kg/m3
303.16 K, 106 kPa | 1042.3 kg/m3
303.16 K, 106.2 kPa | 1042.2 kg/m3
303.16 K, 106.4 kPa | 1042.2 kg/m3
303.16 K, 106.7 kPa | 1042.3 kg/m3
303.16 K, 108.3 kPa | 1042.3 kg/m3
303.16 K, 112.7 kPa | 1042.2 kg/m3
303.16 K, 117.7 kPa | 1042.3 kg/m3
303.16 K, 124.5 kPa | 1042.2 kg/m3
303.16 K, 132.1 kPa | 1042.1 kg/m3
303.16 K, 137.5 kPa | 1042.1 kg/m3
303.16 K, 143.9 kPa | 1042.3 kg/m3
303.16 K, 150.9 kPa | 1042.3 kg/m3
303.16 K, 159.9 kPa | 1042.2 kg/m3
303.16 K, 169 kPa | 1042.2 kg/m3
303.16 K, 180.8 kPa | 1042.3 kg/m3
303.16 K, 192.3 kPa | 1042.2 kg/m3
303.16 K, 204.8 kPa | 1042.2 kg/m3
